The values that follow come from ChEMBL document CHEMBL1201862, “PubChem BioAssay data set” (2004).

Each structure is given as a SMILES string.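 Exposure lasted 48 hours, with cells grown in 96-well plates and compounds tested at five concentrations. GI50 marks 50% less growth.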 Activity calls are given as the source filed them. No stated cut-off is given here; in the data, active = GI50 up to about 1.1 µM and inactive = higher.

Holding throughout (assay): growth of human tumour cells (NCI), 48 h
Assay [1] deals with SN12C.
Assay [2] concerns M14.
Assay [3] relates to SK-MEL-2.
In assay [4] the test system is KM12.
Assay [5] relates to SF-539.
The subject of assay [6] is RXF 393.
Assay [7] deals with UO-31.
The subject of assay [8] is SK-MEL-28.
For assay [9], the system named is LOX IMVI.
The test system of assay [10] is TK-10.
Assay [11] relates to SNB-75.
For assay [12], the system named is SNB-19.
In assay [13] the test system is OVCAR-8.
In assay [14] the test system is NCI-H460.
The subject of assay [15] is HCT-15.
Assay [16] relates to CAKI-1.

As to `Cc1cc(O)nc(CNC(=O)c2cccc(C(=O)NCc3cc(O)nc(C)n3)c2)n1`, the GI50 in assay [1], in assay [2], in [3], in assay [4], in assay [5] and in assay [6] was > 100 µM (inactive) each time. For the same molecule, the GI50 in assay [7], in assay [8], in [9], in assay [10], in [11] and in assay [12] was > 100 µM (inactive) each time. For the same molecule, the GI50 in assay [13] was > 100 µM (inactive); in assay [14] it was > 100 µM (inactive); in assay [15], above 100 µM.

`COC(=O)C(=O)C(C(=O)C(=O)Nc1ccc([N+](=O)[O-])cc1)c1nc2ccccc2nc1O` (centres undefined): the GI50 in assay [1] is > 100 µM (inactive); in [2] it was 42.2 µM (inactive); in assay [3] it was > 100 µM (inactive); in assay [4] it was 57.3 µM (inactive); in [6], > 100 µM (inactive); in assay [7], > 100 µM (inactive). Besides, the GI50 was > 100 µM (inactive) in assay [8]; > 100 µM (inactive) in [9]; > 100 µM (inactive) in [10]; > 100 µM (inactive) in assay [11]; 53.2 µM (inactive) in assay [16]; > 100 µM (inactive) in assay [12]. Moreover, the GI50 in [13] is > 100 µM (inactive); in [14] it was > 100 µM (inactive); in [15] it was 15 µM.

As to `Cc1cccc(C2=C/C(=C(\SS/C(C(=O)c3ccc(OCC(=O)O)c(Cl)c3Cl)=C3\C=C(c4cccc(C)c4)SS3)C(=O)c3ccc(OCC(=O)O)c(Cl)c3Cl)SS2)c1`, the GI50 in assay [1] was 14.8 µM (inactive); in assay [2], 22.1 µM (inactive); in [3] it was 19.1 µM (inactive); in [4], 23.3 µM (inactive); in assay [5], 12.4 µM (inactive); in assay [7], 13 µM (inactive). Further, the GI50 in [8] was 18.6 µM (inactive); in assay [9], 4.69 µM (inactive); in [10], 27.9 µM (inactive); in assay [11] it was 18.7 µM (inactive); in assay [16], 23.1 µM (inactive); in [12] it was 10.9 µM (inactive). In addition, the values for the GI50 in [13], in [14] and in [15] were 11.7 µM (inactive), 27.2 µM (inactive) and 12 µM, respectively.

With `Cc1ccc(NC(=O)CC(=O)n2nc(-c3ccccc3)c(/N=N/c3ccc(Cl)cc3)c2-c2ccccc2)cc1`, the GI50 in [1] was 31.6 µM (inactive); in [2], > 100 µM (inactive); in [3], > 100 µM (inactive); in assay [4] it was 36.5 µM (inactive); in assay [5] it was 28.8 µM (inactive); in assay [7] it was > 100 µM (inactive). Further, the GI50 in assay [8] was > 100 µM (inactive); in assay [9], 15.6 µM (inactive); in assay [10], 22.3 µM (inactive); in [11], 22.6 µM (inactive); in assay [16], > 100 µM (inactive); in assay [12], 42.6 µM (inactive). Besides, the GI50 was 26 µM (inactive) in assay [13], 40.3 µM (inactive) in assay [14] and 88.7 µM in [15].

Turning to `Cn1cnc([N+](=O)[O-])c1Sc1nnnn1-c1ccccc1`, the GI50 in assay [1] is 15.7 µM (inactive); in assay [2], 10.9 µM (inactive); in [3] it was 14.1 µM (inactive); in assay [4], 17.4 µM (inactive); in assay [5], 12.2 µM (inactive); in assay [7], 13.7 µM (inactive). Further, the GI50 was 14.4 µM (inactive) in assay [8]; 5.65 µM (inactive) in assay [9]; 17.9 µM (inactive) in assay [10]; 16.4 µM (inactive) in assay [11]; 15.9 µM (inactive) in [16]; 33.2 µM (inactive) in assay [12]. For the same molecule, the GI50 was 13.8 µM (inactive) in assay [13] and 16.5 µM (inactive) in [14].
